Results reported in PubChem BioAssay AID2060891 (Molecular Pharmacology Branch, DTP, NCI, 2025).

Test system: K98450-129-R-PDC complex spheroid growth, percent test/control
Assay: Anticancer human tumor K98450-129-R-PDC patient-derived colon adenocarcinoma cell line growth inhibition [RAS]
Details: for IC50: curve of first compound; for viability, T/C: stronger effect = lower value
Method in brief: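 Agents were tested in combination matrices in half-log decrements from a top concentration at or near clinical Cmax (10 microM if undetermined). Targets were multi-cell spheroids of tumour lines plus HUVEC and MSC stromal cells.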

[1] = second compound 0.0316 µM, first compound 0.0316 µM
[2] = second compound 0.0316 µM, first compound 0.1 µM
[3] = second compound 0.0316 µM, first compound 0.316 µM
[4] = second compound 0.0316 µM, first compound 1 µM
[5] = second compound 0.0316 µM, first compound 3.16 µM
[6] = second compound 0.0316 µM, first compound 10 µM
[7] = second compound 0.1 µM, first compound 0.0316 µM
[8] = second compound 0.1 µM, first compound 0.1 µM
[9] = second compound 0.1 µM, first compound 0.316 µM
[10] = second compound 0.1 µM, first compound 1 µM
[11] = second compound 0.1 µM, first compound 3.16 µM
[12] = second compound 0.1 µM, first compound 10 µM
[13] = second compound 0.316 µM, first compound 0.0316 µM
[14] = second compound 0.316 µM, first compound 0.1 µM
[15] = second compound 0.316 µM, first compound 0.316 µM
[16] = second compound 0.316 µM, first compound 1 µM
[17] = second compound 0.316 µM, first compound 3.16 µM
[18] = second compound 0.316 µM, first compound 10 µM
[19] = second compound 1 µM, first compound 0.0316 µM
[20] = second compound 1 µM, first compound 0.1 µM
[21] = second compound 1 µM, first compound 0.316 µM
[22] = second compound 1 µM, first compound 1 µM
[23] = second compound 1 µM, first compound 3.16 µM
[24] = second compound 1 µM, first compound 10 µM
[25] = second compound 3.16 µM, first compound 0.0316 µM
[26] = second compound 3.16 µM, first compound 0.1 µM
[27] = second compound 3.16 µM, first compound 0.316 µM
[28] = second compound 3.16 µM, first compound 1 µM
[29] = second compound 3.16 µM, first compound 3.16 µM
[30] = second compound 3.16 µM, first compound 10 µM
[31] = second compound 10 µM, first compound 0.0316 µM
[32] = second compound 10 µM, first compound 0.1 µM
[33] = second compound 10 µM, first compound 0.316 µM
[34] = second compound 10 µM, first compound 1 µM
[35] = second compound 10 µM, first compound 3.16 µM
[36] = second compound 10 µM, first compound 10 µM
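Also: spheroids exposed to agents for seven days before the viability readout.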
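For viability, T/C in this document: luminescence used as a proxy for viable cell amount.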

Cc1nc(N2CCC3(CC2)COC(C)C3N)c(CO)nc1Sc1ccnc(N)c1Cl (centres undefined) + C#Cc1c(F)ccc2cc(O)cc(-c3ncc4c(N5CC6CCC(C5)N6)nc(OCC56CCCN5CC(F)C6)nc4c3F)c12
IC50 (second compound 0.0316 µM): 3010 nM
IC50 (second compound 0.1 µM): 3130 nM
IC50 (second compound 0.316 µM): 2240 nM
IC50 (second compound 1 µM): 1720 nM
IC50 (second compound 3.16 µM): 1070 nM
IC50 (second compound 10 µM): 513 nM
viability, T/C [1]: 104%
viability, T/C [2]: 93.3%
viability, T/C [3]: 88.8%
viability, T/C [4]: 75.8%
viability, T/C [5]: 46.9%
viability, T/C [6]: 25%
viability, T/C [7]: 112%
viability, T/C [8]: 93.5%
viability, T/C [9]: 83.6%
viability, T/C [10]: 80.8%
viability, T/C [11]: 45.3%
viability, T/C [12]: 21.5%
viability, T/C [13]: 101%
viability, T/C [14]: 97.5%
viability, T/C [15]: 86.1%
viability, T/C [16]: 66.6%
viability, T/C [17]: 43.1%
viability, T/C [18]: 19.8%
viability, T/C [19]: 97%
viability, T/C [20]: 98.9%
viability, T/C [21]: 84%
viability, T/C [22]: 64.3%
viability, T/C [23]: 34.3%
viability, T/C [24]: 12.9%
viability, T/C [25]: 91.2%
viability, T/C [26]: 82%
viability, T/C [27]: 79.8%
viability, T/C [28]: 52.7%
viability, T/C [29]: 17.1%
viability, T/C [30]: 10.5%
viability, T/C [31]: 83.4%
viability, T/C [32]: 82.2%
viability, T/C [33]: 62.8%
viability, T/C [34]: 31.7%
viability, T/C [35]: 11.4%
viability, T/C [36]: 7.51%

NC1c2ccccc2OC12CCN(c1cnc3c(N4CCCc5ncccc54)n[nH]c3n1)CC2 (centres undefined) + C#Cc1c(F)ccc2cc(O)cc(-c3ncc4c(N5CC6CCC(C5)N6)nc(OCC56CCCN5CC(F)C6)nc4c3F)c12
IC50 (second compound 0.0316 µM): 195 nM
IC50 (second compound 0.1 µM): 189 nM
IC50 (second compound 0.316 µM): 165 nM
IC50 (second compound 1 µM): 141 nM
IC50 (second compound 3.16 µM): 75.8 nM
IC50 (second compound 10 µM): 48 nM
viability, T/C [1]: 92.2%
viability, T/C [2]: 73.8%
viability, T/C [3]: 32.1%
viability, T/C [4]: 17.4%
viability, T/C [5]: 11.8%
viability, T/C [6]: 9.37%
viability, T/C [7]: 97.8%
viability, T/C [8]: 72.7%
viability, T/C [9]: 31.3%
viability, T/C [10]: 14%
viability, T/C [11]: 9.92%
viability, T/C [12]: 6.11%
viability, T/C [13]: 96.6%
viability, T/C [14]: 70.2%
viability, T/C [15]: 23.4%
viability, T/C [16]: 10.3%
viability, T/C [17]: 8.37%
viability, T/C [18]: 6.2%
viability, T/C [19]: 91.2%
viability, T/C [20]: 65.2%
viability, T/C [21]: 14.2%
viability, T/C [22]: 8.69%
viability, T/C [23]: 6.98%
viability, T/C [24]: 6.07%
viability, T/C [25]: 78.2%
viability, T/C [26]: 41.1%
viability, T/C [27]: 10.8%
viability, T/C [28]: 7.66%
viability, T/C [29]: 5.66%
viability, T/C [30]: 4.62%
viability, T/C [31]: 63.9%
viability, T/C [32]: 25.6%
viability, T/C [33]: 7.94%
viability, T/C [34]: 6.21%
viability, T/C [35]: 4.84%
viability, T/C [36]: 2.23%
